Calls of active or inactive are those of the source.
What was measured:
[1] = target: Epstein-Barr nuclear antigen 1 (Epstein-Barr virus (strain B95-8) (HHV-4) (Human herpesvirus 4), UniProt P03211); assay: inhibition of EBV nuclear antigen 1 DNA binding – biochemical, fluorescence polarization, 1536-well, dose response (AID 2381); parameters: species or system human gammaherpesvirus 4;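 also: fluorescence polarization of a Cy5 DNA probe bound by EBNA-1 protein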
[2] = target: Lytic switch protein BZLF1 (Epstein-Barr virus (strain B95-8) (HHV-4) (Human herpesvirus 4), UniProt P03206); assay: inhibition of BZLF1 ZTA DNA binding – biochemical, fluorescence polarization, Epstein-Barr virus, 1536-well, counter-screen for EBNA-1 inhibitor project, dose response (AID 2377); parameters: species or system human gammaherpesvirus 4;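 also: fluorescence polarization of Cy5-labelled ZRE DNA probe bound by purified Zta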
Lytic switch protein BZLF1, sequence (P03206 whole entry): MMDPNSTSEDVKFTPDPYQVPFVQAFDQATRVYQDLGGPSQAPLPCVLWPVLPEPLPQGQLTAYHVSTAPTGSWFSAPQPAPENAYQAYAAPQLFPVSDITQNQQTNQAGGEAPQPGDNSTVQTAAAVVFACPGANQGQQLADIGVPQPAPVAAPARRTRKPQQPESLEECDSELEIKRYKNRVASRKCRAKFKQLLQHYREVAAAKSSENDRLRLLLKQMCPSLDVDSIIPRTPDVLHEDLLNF

[3] = target: Neuropeptide Y receptor type 2 (Homo sapiens, UniProt P49146); assay: IC50 for human NPY-Y2 blockade – cell-based, counter-screen for NPY-Y1 antagonist project, dose response (AID 1278); format: functional
Neuropeptide Y receptor type 2, sequence (P49146 whole entry): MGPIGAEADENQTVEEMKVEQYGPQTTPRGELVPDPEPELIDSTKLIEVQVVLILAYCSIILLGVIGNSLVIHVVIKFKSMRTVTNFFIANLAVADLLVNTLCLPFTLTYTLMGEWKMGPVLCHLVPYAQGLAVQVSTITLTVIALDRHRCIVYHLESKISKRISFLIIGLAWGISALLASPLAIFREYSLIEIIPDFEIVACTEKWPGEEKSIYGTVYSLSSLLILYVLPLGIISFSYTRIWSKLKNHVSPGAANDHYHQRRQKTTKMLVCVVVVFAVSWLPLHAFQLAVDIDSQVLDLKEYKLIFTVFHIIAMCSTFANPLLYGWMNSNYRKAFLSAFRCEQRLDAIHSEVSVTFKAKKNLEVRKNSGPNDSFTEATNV

[4] = target: Neuropeptide Y receptor type 1 (Homo sapiens, UniProt P25929); assay: IC50 of human NPY-Y1 blockers – cell-based, dose response (AID 1277); format: functional
Neuropeptide Y receptor type 1, sequence (P25929 whole entry): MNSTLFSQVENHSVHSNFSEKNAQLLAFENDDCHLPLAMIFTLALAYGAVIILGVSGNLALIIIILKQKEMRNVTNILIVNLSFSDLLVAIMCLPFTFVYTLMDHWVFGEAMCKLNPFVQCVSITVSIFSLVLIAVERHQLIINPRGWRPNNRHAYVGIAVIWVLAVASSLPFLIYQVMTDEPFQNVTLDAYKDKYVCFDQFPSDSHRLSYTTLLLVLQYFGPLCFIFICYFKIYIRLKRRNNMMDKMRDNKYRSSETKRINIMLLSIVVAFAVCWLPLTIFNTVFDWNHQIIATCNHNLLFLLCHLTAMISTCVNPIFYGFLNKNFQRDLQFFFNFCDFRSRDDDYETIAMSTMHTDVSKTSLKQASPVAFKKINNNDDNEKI

Paired box protein Pax-8 = Paired box protein Pax-8 (Homo sapiens, UniProt Q06710); assay: PAX8 transcriptional activity inhibition in RMG-I – RMG-I cells, luciferase, cherry-pick, dose response (AID 687027); format: functional, cell-based;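 also: luciferase reporter driven by Pax8 target thyroperoxidase promoter measured by SteadyGlo luminescence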
Paired box protein Pax-8, sequence (Q06710 whole entry): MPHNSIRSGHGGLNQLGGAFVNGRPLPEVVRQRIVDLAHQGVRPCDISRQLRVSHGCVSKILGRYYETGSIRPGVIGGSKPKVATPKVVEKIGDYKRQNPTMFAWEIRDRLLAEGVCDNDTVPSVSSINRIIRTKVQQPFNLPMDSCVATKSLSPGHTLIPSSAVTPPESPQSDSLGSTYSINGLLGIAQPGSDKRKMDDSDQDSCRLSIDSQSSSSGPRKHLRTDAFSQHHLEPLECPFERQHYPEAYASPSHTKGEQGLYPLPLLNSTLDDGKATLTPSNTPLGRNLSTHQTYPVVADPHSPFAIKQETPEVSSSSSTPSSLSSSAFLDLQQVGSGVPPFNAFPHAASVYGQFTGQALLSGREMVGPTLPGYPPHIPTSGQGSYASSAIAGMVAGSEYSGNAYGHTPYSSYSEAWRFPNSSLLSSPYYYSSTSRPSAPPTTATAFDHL

cells = format: functional, cell-based
[5] = luciferase reporter signal suppression in cells – H4 neuroglioma cells, luminescence, dose response (AID 1990); format: functional, cell-based
[6] = alpha-synuclein stem-loop luciferase translation blockers – H4 neuroglioma cells, luminescence, confirmation (AID 1988); format: functional, cell-based
[7] = blockers of HIV-1 envelope-mediated cell-cell fusion – cherry-pick, dose response (AID 652057); format: functional, cell-based
[8] = HEK-293T viability loss, compound-treated – cell-based, uHTS hits, cytotoxicity control for B/T-cell NF-kB inhibitor project, dose response (AID 489019); format: functional;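 also: IC50 reflects cytotoxicity as loss of cell viability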
[9] = blockers of HIV-1 ZM109 envelope-driven cell-cell fusion – HeLa effector, CEM target cells, luciferase, cherry-pick, dose response (AID 652058); format: functional, cell-based;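 also: luciferase signal from HIV-1 Env mediated cell-cell fusion of effector and target cells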
Jurkat = assay: blockers of NF-kB activation in T cells – Jurkat, luciferase reporter, luminescence, B- and T-cell, dose response (AID 489004); format: functional, cell-based; details: Homo sapiens;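 also: NF-kB luciferase reporter Jurkat cells stimulated with PMA plus ionomycin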
[10] = Luminescence Cell-Based Dose Response HTS to Identify Inhibitors of 5'UTR Stem-Loop Driven Prion Protein mRNA Translation in H4 Neuroglioblastoma Cells. [Related pubchem assays: 1827 (Project Summary), 1813 (Primary HTS)]; format: functional
[11] = Luminescence-based counterscreen assay for KLF5 inhibitors: dose response cell-based high throughput screening assay to identify cytotoxic compounds using the IEC-6 intestinal epithelial cell line. [Related pubchem assays: 1700 (Primary screen.), 1834 (Confirmation screen.), 1858 (Summary AID.), 1905 (Counterscreen.)]; format: functional
[12] = luciferase reporter signal reduction – luminescence, H4-C neuroglioblastoma cells, dose response (AID 2458); format: functional, cell-based;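 also: H4 neuroglioblastoma cells stably carrying a luciferase reporter gene fusion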
[13] = off-target signal loss in HeLa-CEM21 co-culture – HeLa F-luc CTL cells, cherry-picked, counter-screen for HIV-1 Env fusion inhibitor project, dose response (AID 652040); format: functional, cell-based;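 also: potency for signal decrease marking cytotoxic or nonspecific inhibition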
[14] = alpha-synuclein stem-loop translation blockers – luminescence, H4 neuroglioblastoma cells, dose confirmation, confirmation (AID 2454); format: functional, cell-based;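 also: H4 neuroglioblastoma cells carrying an alpha-synuclein 5'UTR luciferase reporter; potency for inhibition of the luciferase signal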
[15] = HIV-1 AD8 envelope cell-cell fusion blockers – cherry-pick, dose response (AID 652062); format: functional, cell-based;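 also: luciferase signal from cell-cell fusion driven by HIV-1 clade B AD8 Env; potency is for inhibitors of fusion seen as a drop in luminescence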
[16] = target: Potassium voltage-gated channel subfamily KQT member 2 (Rattus norvegicus, UniProt O88943, W236L); assay: potentiation of rat KCNQ2 current – cell-based, automated electrophysiology, mechanism study for KCNQ2 potentiator project, dose response (AID 2603); format: functional
Potassium voltage-gated channel subfamily KQT member 2, sequence (O88943 whole entry W236L): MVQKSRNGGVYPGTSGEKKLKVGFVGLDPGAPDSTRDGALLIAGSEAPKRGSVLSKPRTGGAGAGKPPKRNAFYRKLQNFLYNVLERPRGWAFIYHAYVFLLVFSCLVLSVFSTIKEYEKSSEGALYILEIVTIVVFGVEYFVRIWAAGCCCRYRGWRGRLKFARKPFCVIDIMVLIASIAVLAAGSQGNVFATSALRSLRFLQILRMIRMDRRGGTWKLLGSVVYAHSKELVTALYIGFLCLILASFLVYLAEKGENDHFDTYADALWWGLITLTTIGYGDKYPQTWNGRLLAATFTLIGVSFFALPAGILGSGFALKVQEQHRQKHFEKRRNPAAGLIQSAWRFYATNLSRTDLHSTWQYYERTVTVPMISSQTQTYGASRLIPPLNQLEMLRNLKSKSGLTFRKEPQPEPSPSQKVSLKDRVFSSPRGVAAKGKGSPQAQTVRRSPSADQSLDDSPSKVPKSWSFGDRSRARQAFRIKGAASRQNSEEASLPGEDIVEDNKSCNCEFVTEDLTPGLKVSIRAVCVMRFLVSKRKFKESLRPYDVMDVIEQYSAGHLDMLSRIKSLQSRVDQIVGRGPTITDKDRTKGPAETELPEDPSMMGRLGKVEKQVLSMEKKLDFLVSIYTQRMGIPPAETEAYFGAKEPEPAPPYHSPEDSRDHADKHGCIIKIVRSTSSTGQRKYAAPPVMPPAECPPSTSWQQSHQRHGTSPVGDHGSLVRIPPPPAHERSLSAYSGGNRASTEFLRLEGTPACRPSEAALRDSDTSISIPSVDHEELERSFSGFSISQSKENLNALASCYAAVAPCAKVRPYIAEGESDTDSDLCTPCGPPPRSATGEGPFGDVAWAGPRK

Protein RecA = target: T1, Protein RecA (Mycobacterium tuberculosis, UniProt P9WHJ3); assay: Fluorescence Cell-Free Homogeneous Dose Retest to Identify Inhibitors of RecA-Intein Splicing Activity. [Related pubchem assays (depositor defined):AID2097, AID2223, AID489010, AID492950]; format: functional
T1 sequence (P9WHJ3 whole entry): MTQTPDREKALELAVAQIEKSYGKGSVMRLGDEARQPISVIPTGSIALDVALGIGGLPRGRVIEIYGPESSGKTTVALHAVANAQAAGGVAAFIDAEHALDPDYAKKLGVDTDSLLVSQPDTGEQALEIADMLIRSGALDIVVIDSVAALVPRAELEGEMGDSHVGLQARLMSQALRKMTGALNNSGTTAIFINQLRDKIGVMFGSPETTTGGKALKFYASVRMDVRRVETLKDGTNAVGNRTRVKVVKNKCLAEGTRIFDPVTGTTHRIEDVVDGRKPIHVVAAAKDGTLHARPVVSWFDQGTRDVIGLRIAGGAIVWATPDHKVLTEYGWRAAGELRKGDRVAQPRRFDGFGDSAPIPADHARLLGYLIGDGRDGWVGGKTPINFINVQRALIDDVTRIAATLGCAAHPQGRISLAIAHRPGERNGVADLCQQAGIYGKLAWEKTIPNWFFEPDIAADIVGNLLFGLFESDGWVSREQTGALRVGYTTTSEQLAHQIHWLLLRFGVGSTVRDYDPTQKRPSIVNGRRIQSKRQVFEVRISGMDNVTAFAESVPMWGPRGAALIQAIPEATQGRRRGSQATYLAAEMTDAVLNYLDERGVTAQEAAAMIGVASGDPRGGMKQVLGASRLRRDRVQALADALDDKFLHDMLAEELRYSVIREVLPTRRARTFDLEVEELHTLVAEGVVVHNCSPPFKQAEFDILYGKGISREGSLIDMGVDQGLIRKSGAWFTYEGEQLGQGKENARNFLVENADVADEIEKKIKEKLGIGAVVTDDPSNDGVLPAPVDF

[17] = Shn3 3'UTR reporter signal decrease – cell-based, Clone20 osteoblasts, firefly luciferase, cherry-pick, set 2, Schnurri-3 inhibitor project, dose response (AID 720490); format: functional;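 also: actives lower the luminescence signal as inhibitors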
[18] = target: T2, High affinity choline transporter 1 (Homo sapiens, UniProt Q9GZV3); assay: human choline transporter blockers, potency – cell-based, 10-point CRC, membrane potential dye, dose response (AID 588401); format: functional;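 also: membrane potential dye fluorescence of choline-evoked depolarization via CHT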
T2 sequence (Q9GZV3 whole entry): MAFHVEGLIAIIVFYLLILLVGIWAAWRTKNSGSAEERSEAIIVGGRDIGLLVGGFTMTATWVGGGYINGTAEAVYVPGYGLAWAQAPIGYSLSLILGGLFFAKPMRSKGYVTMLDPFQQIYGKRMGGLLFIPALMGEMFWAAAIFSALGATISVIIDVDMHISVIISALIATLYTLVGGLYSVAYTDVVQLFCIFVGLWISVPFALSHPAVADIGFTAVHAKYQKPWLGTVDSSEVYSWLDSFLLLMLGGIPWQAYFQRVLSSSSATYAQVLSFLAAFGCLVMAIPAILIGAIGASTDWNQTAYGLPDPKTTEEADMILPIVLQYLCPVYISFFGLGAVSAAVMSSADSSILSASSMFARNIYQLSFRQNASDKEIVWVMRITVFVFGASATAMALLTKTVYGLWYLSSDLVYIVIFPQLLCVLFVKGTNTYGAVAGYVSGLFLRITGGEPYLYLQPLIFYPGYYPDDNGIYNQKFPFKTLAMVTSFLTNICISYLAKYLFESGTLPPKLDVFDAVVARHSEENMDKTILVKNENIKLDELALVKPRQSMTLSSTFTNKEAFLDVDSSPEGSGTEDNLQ

Genome polyprotein = Genome polyprotein (dengue virus type 2, UniProt P29990); assay: flavivirus cap methylation enzyme inhibition – biochemical, confirmation dose response, primary screen (AID 588689); format: functional
Genome polyprotein, sequence (P29990 2492-3391 limits assumed): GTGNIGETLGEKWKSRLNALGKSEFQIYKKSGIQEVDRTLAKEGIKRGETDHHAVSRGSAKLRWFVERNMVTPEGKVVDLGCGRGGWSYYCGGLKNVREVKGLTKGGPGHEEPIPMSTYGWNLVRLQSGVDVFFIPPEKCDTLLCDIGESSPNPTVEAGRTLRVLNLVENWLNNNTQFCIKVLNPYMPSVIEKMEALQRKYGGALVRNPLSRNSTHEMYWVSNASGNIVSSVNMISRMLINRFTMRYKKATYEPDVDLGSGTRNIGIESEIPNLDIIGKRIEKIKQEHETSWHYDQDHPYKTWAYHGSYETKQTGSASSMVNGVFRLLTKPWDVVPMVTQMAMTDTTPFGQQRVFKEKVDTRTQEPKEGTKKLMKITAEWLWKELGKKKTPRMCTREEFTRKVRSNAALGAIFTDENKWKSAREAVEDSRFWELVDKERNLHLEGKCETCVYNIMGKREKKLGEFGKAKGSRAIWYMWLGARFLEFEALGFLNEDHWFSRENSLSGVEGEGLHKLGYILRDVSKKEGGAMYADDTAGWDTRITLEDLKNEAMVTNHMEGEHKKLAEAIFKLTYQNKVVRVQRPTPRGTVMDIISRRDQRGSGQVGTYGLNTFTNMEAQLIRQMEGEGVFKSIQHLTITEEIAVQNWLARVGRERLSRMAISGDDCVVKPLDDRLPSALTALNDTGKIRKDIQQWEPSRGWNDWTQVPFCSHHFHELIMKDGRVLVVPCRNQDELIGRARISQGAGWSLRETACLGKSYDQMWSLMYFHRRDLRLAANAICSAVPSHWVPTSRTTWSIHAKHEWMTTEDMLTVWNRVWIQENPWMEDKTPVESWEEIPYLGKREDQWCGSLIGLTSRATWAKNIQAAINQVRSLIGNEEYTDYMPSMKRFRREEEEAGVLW

[19] = target: T3, Ubiquitin-conjugating enzyme E2 N (Homo sapiens, UniProt P61088); format: functional
T3 sequence (P61088 whole entry): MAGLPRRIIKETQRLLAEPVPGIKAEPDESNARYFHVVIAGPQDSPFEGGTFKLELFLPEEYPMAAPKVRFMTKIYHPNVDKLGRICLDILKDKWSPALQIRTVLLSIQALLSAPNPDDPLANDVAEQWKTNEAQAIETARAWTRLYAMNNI

Bcl-2-related protein A1 = target: T4, Bcl-2-related protein A1 (Mus musculus, UniProt Q07440); format: functional;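 also: confirmatory dose–response counterscreen on Bfl-1, used to check hits from a UBC13 polyubiquitin inhibitor campaign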
T4 sequence (Q07440 whole entry): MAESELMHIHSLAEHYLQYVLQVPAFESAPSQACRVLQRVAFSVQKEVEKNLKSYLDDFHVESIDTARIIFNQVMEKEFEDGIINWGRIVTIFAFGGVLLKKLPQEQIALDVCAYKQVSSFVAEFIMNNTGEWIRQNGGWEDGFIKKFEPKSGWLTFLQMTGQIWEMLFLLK

[20] = EF1alpha-driven Renilla reporter with control 3'UTR suppression – Clone20-Shn3RL cells, dual-Glo, cherry-pick, set 2, counter-screen for Shn3 3'UTR targeting project, dose response (AID 720724); format: functional, cell-based; details: Dual-Go Shn3RL
Vero = assay: viability of Vero cells under compound – cytotoxicity control for flavivirus capping enzyme inhibitors (AID 588742); format: functional; details: Chlorocebus sabaeus
[21] = non-specific 3'UTR reporter inhibition in Clone20-Shn3RL – cell-based, Renilla luciferase, cherry-picked, counter-screen for Shn3 inhibitor project, dose response (AID 624133); format: functional
[22] = target: T5, Replicative DNA helicase DnaB (Mycobacterium tuberculosis, UniProt P9WMR3); assay: DnaB intein splicing inhibitors, dose response, biochemical, cell-free fluorescence (AID 449749); format: functional
T5 sequence (P9WMR3 whole entry): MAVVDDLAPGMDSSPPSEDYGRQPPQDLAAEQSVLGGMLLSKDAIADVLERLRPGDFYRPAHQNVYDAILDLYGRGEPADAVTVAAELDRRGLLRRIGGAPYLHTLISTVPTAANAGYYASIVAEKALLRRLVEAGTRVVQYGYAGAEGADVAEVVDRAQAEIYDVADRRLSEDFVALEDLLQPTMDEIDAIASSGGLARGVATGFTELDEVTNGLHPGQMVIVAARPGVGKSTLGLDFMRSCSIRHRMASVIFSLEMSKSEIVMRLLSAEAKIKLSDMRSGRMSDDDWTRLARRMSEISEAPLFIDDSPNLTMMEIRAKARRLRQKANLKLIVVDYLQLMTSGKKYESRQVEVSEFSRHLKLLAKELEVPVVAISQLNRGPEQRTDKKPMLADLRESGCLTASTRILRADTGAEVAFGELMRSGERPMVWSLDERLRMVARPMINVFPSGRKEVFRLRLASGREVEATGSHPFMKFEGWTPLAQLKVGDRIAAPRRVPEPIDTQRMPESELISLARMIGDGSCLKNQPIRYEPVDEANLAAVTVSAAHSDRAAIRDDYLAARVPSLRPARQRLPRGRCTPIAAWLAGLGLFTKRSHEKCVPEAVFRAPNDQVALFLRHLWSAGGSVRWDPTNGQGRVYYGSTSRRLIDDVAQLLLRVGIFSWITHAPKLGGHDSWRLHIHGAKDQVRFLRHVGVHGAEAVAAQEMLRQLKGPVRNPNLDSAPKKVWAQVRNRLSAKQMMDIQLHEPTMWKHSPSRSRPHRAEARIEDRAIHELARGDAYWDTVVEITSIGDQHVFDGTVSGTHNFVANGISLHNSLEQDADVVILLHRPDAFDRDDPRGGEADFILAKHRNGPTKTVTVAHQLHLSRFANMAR

[23] = target: T2, High affinity choline transporter 1; assay: human choline transporter blockers, potency – cell-based, 5-point CRC, membrane potential dye, dose response (AID 504840); format: functional
[24] = Shn3 transcript knock-down in Clone20 cells – cell-based, qPCR, cherry-pick, dose response (AID 743415); format: functional
[25] = target: T3, Ubiquitin-conjugating enzyme E2 N; format: functional; remark: listed apart in the source
[26] = reduction of Shn3 3'UTR-driven luciferase in osteoblasts – cell-based, Clone20 osteoblasts, firefly luciferase, cherry-picked, dose response (AID 624132); format: functional;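 also: firefly luciferase luminescence from reporter carrying the Shn3 3'UTR in osteoblasts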
[27] = mitochondrial function rescue without frataxin homolog – Friedreich's ataxia, plus single-dose screen, dose response (AID 1465); format: functional;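 also: yeast depleted of Yfh1p frataxin homolog grown on glycerol needing respiration; WST-1 tetrazolium dye reduction as measure of cellular dehydrogenase metabolic activity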
HT-1080 = assay: HT1080 cell viability loss – fluorescence readout (AID 620); format: functional, cell-based; details: Homo sapiens
[28] = target: Luciferin 4-monooxygenase (Photinus pyralis, UniProt P08659); assay: Counter Screen for Luciferase-based Assay Positives. [Related pubchem assays: 620, 618, 411 ]
HEK293 = assay: EBV LMP1 TES2 canonical NF-kB signalling blockers – cell-based, HEK293, luciferase, cherry-pick, dose response (AID 588343); format: functional; details: Homo sapiens
NS3 = NS3 (Hepatitis C virus, UniProt A3EZJ3); assay: PubChem AID 2173; parameters: species or system Hepacivirus hominis
NS3, sequence (A3EZJ3 whole entry): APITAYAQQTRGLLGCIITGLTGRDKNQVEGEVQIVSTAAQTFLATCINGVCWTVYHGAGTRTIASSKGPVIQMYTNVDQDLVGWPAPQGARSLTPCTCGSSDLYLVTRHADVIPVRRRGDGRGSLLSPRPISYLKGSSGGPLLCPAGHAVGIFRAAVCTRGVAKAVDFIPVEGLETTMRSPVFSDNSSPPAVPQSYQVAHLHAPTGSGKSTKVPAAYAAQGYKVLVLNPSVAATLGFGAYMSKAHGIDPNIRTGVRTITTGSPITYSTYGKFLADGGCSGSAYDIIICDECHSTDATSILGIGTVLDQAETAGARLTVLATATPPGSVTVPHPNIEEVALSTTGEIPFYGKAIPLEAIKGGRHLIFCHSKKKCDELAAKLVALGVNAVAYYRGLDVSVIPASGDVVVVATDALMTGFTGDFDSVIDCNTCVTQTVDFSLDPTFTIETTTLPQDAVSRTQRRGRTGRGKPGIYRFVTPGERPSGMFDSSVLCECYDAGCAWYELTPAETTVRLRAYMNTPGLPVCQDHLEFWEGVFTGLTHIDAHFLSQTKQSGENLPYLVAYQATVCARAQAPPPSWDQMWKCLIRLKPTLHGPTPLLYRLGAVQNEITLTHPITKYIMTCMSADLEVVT

Epstein-Barr nuclear antigen 1, sequence (P03211 whole entry): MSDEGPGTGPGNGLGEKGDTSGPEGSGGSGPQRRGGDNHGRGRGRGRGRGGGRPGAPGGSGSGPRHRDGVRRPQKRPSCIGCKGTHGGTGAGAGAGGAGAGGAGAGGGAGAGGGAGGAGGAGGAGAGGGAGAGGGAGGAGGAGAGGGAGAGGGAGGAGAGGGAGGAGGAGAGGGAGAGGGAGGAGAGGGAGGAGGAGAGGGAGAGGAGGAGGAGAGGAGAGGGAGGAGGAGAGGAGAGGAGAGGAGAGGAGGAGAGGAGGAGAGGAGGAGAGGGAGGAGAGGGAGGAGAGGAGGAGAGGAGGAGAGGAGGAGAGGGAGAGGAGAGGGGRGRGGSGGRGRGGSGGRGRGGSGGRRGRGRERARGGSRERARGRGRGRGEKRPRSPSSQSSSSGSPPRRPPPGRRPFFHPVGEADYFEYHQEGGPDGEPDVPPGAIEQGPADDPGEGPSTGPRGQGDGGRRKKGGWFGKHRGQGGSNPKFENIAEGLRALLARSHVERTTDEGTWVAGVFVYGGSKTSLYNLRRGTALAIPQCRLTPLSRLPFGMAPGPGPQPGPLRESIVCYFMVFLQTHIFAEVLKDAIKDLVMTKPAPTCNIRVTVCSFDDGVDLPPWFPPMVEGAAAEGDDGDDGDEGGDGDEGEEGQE

COc1ccc(-c2nonc2NC(=O)c2oc3ccc(F)cc3c2C)cc1OC
> 111 µM (not active): IC50 [2]
16.4 µM (not active): IC50 [1]

COc1ccc(C2N(c3ccc(Cl)cc3)N=C(C(C)=O)N(C)N2C(C)=O)cc1 (stereo not drawn)
> 35 µM (not active): IC50 [3] | IC50 [4]

O=C(NCCc1ccccc1F)c1ccc2c(c1)OCCO2
> 39.8 µM (not active): IC50 [11]
active: AC50 (Paired box protein Pax-8) 2.18 µM | EC50 (cells) 0.316 µM | EC50 [5] 0.16 µM | EC50 [6] 0.113 µM | AC50 [7] 2.14 µM | AC50 [9] 8.11 µM | IC50 (Jurkat) 0.77 µM | EC50 [10] < 0.1 µM | EC50 [12] 0.258 µM | AC50 [13] 3.21 µM | EC50 [14] 0.151 µM | AC50 [15] 1.25 µM
inactive: IC50 [8] > 80 µM

CCCc1nnc(NC(=O)c2nc(S(=O)(=O)Cc3ccc(C)cc3)ncc2Cl)s1
inactive: IC50 (Bcl-2-related protein A1) > 20 µM | AC50 [22] > 380 µM
active: EC50 [16] 3.02 µM | EC50 (Protein RecA) 86.7 µM | AC50 [17] 2.05 µM | IC50 [18] 3.36 µM | IC50 (Genome polyprotein) > 100 µM | IC50 [19] 14.8 µM | AC50 [20] 40.7 µM | CC50 (Vero) > 40 µM | AC50 [21] 12.5 µM | IC50 [23] 2.59 µM | AC50 [24] 13.4 µM | IC50 [25] 10.5 µM | AC50 [26] 0.538 µM

CCOc1ccc2nc(NN=C3C(=O)NC(=O)NC3=O)sc2c1
active: EC50 [27] > 100 µM

Cc1ccc(C(=O)Nc2cccc(C(=O)O)c2)cc1S(=O)(=O)N1CCCCC1
> 50 µM (not active): EC50 (HT-1080)
active: EC50 [28] < 0.2 µM | AC50 (HEK293) 3.76 µM

Cc1cc(Cl)ccc1Oc1ccccc1C(=O)CC#N
active: IC50 (NS3) 3.54 µM
